Test results taken from ChEMBL document CHEMBL4680115, “Discovery of the programmed cell death-1/programmed cell death-ligand 1 interaction inhibitors bearing an indoline scaffold” (Eur J Med Chem, 2020).

Columns and labels:
[1] = biological target: T1, Programmed cell death protein 1/Programmed cell death 1 ligand 1 (Homo sapiens, UniProt Q15116+Q9NZQ7); assay: Inhibition of PD-1/PDL1 interaction (unknown origin) by HTRF assay; type: protein-complex assay
Jurkat = assay: Cytotoxicity against human Jurkat T cells assessed as reduction in cell viability measured after 72 hrs by CCK-8 assay; type: cell-based; conditions: for Activity: human, jurkat, time 72 hrs; for EC50: Homo sapiens, Jurkat
[2] = biological target: T1, Programmed cell death protein 1/Programmed cell death 1 ligand 1; assay: Inhibition of PD1/PDL1 protein-protein interaction in human PBMC-derived CD3-positive T cells co-cultured with human Hep3B cells expressing human PDL1/OS-8 assessed as increase in IFNgamma secretion measured after 72 hrs; conditions: dose 0.31-20 µM
[3] = biological target: T1, Programmed cell death protein 1/Programmed cell death 1 ligand 1; assay: Inhibition of PD1/PDL1 protein-protein interaction in human PBMC-derived CD3-positive T cells co-cultured with human Hep3B cells expressing human PDL1/OS-8 assessed as increase in IFNgamma secretion at 20 uM measured after 72 hrs; parameters: scale not given: the % may be the effect or the level left
[4] = biological target: T1, Programmed cell death protein 1/Programmed cell death 1 ligand 1; assay: Inhibition of PD1/PDL1 protein-protein interaction in human PBMC-derived CD3-positive T cells co-cultured with human Hep3B cells expressing human PDL1/OS-8 assessed as increase in IFNgamma secretion at 5 uM measured after 72 hrs relative to BMS-1

T1 sequence (Q15116 whole entry): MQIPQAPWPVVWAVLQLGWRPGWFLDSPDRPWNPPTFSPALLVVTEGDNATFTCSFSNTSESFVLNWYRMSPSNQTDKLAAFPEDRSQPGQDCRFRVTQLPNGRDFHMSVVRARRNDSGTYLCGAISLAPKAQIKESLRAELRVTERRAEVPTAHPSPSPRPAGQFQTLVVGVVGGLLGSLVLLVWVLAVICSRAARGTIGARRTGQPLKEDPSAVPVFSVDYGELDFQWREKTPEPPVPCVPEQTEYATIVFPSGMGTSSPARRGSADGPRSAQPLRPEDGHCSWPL
T1 sequence (Q9NZQ7 whole entry): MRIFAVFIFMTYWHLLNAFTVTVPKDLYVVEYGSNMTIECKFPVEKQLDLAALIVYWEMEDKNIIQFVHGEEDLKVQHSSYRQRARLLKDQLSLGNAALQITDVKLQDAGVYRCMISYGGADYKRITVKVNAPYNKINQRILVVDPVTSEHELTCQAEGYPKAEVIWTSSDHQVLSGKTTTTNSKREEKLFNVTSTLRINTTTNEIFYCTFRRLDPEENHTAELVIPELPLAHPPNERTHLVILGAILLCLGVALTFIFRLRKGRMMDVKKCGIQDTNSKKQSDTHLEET

Row | Compound | IC50 [1] [nM] | further results
1 | COc1cc(C(=O)N2CCc3c(-c4ccc5c(c4)OCCO5)cccc32)ccc1CNCCNC(C)=O | 416 | 
2 | O=C(c1ccc(CNCCO)c(Cl)c1)N1CCc2c(-c3ccccc3)cccc21 | 353 | 
3 | CC(=O)NCCNCc1ccc(C(=O)N2CCc3c(-c4ccccc4)cccc32)cc1C | 457 | 
4 | Cc1c(-c2ccccc2)cccc1N1Cc2cc(CNCCO)ccc2C1=O | 7290 | 
5 | CC(=O)NCCNCc1ccc(C(=O)N2CCc3c(-c4ccccc4)cccc32)cc1Cl | 589 | 
6 | COc1cc(C(=O)N2CCc3c(-c4ccccc4)cccc32)ccc1CN1CCC[C@H]1CO | 620 | 
7 | N#Cc1cccc(COc2cc(C(=O)N3CCc4c(-c5ccccc5)cccc43)ccc2CNCCO)c1 | 572 | 
8 | COc1cc(C(=O)N2CCc3c(-c4ccccc4)cccc32)cc(OC)c1CNCCNC(C)=O | 7260 | 
9 | COc1cc(C(=O)N2CCc3c(-c4ccccc4)cccc32)cc(OC)c1CNCCO | 4770 | 
10 | Cc1cc(C(=O)N2CCc3c(-c4ccccc4)cccc32)ccc1CNCCO | 212 | Activity (Jurkat): Toxic
11 | COc1cc(C(=O)N2CCc3c(-c4ccccc4)cccc32)ccc1CNCCO |  | EC50 (Jurkat): 44700 nM; inhibition [2]: Dose-dependent effect; Activity [3]: 610%; fold change (FC) [4]: 3.21
12 | CC(=O)NCCNCc1ccc2c(c1)CN(c1cccc(-c3ccccc3)c1C)C2=O | > 10000 | 
13 | O=C(c1ccc(CNCCO)cc1Cl)N1CCc2c(-c3ccccc3)cccc21 | > 10000 | 
14 | O=C(c1ccc(CNCCO)c(O)c1)N1CCc2c(-c3ccccc3)cccc21 | 304 | 
15 | COc1cc(C(=O)N2CCc3c(-c4ccccc4)cccc32)ccc1CN1CCC[C@H]1C(=O)O | 1890 | 
16 | CC(=O)NCCNCc1ccc(C(=O)N2CCc3c(-c4ccccc4)cccc32)cc1OCc1cccc(C#N)c1 | 1060 | 

Row | Compound | IC50 [1] [nM] | further results
17 | O=C(c1ccc(CNCCO)cc1)N1CCc2c(-c3ccccc3)cccc21 | 192 | Activity (Jurkat): Toxic
18 | COc1cc(C(=O)N2CCc3c(-c4ccc5c(c4)OCCO5)cccc32)ccc1CNCCO | 225 | Activity (Jurkat): Toxic
19 | CC(=O)NCCNCc1cccc(C(=O)N2CCc3c(-c4ccccc4)cccc32)c1 | 745 | 
20 | CC(=O)NCCNCc1ccc(C(=O)N2CCc3c(-c4ccccc4)cccc32)cc1 | 622 | 
21 | O=C(c1cccc(CNCCO)c1)N1CCc2c(-c3ccccc3)cccc21 | 344 | 
22 | COc1cc(C(=O)N2CCc3c(-c4ccccc4)cccc32)ccc1CN1CCCC[C@@H]1C(=O)O | 1060 | 
23 | CC(=O)NCCNCc1ccc(C(=O)N2CCc3c(-c4ccccc4)cccc32)cc1O | 602 | 
24 | N#Cc1cccc(COc2cc(C(=O)N3CCc4c(-c5ccccc5)cccc43)ccc2CN[C@H](CO)C(=O)O)c1 | 3280 | 
25 | Cc1c(-c2ccccc2)cccc1N1Cc2ccc(CNCCO)cc2C1=O | 9380 | 
26 | COc1cc(C(=O)N2CCc3c(-c4ccccc4)cccc32)ccc1CN[C@H](CO)C(=O)O | 278 | 
27 | COCCNCc1ccc(C(=O)N2CCc3c(-c4ccccc4)cccc32)cc1OC | 350 | 
28 | COc1cc(C(=O)N2CCc3c(-c4ccccc4)cccc32)ccc1CNCCNC(C)=O | 220 | EC50 (Jurkat): 39800 nM; inhibition [2]: Dose-dependent effect
29 | N#Cc1cccc(COc2cc(C(=O)N3CCc4c(-c5ccccc5)cccc43)ccc2CN2CCCC[C@H]2C(=O)O)c1 | 1330 | 
30 | CC(=O)NCCNCc1ccc2c(c1)C(=O)N(c1cccc(-c3ccccc3)c1C)C2 | > 10000 | 
31 | CC(=O)NCCNCc1ccc(C(=O)N2CCc3c(-c4ccccc4)cccc32)c(Cl)c1 | > 10000 | 
